PubChem BioAssay (NCI)
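Protocol summary: plate cells (96-well), add compound at 5 concentrations, incubate 48 h, interpolate endpoints linearly. GI50: concentration for 50% inhibition of growth. TGI: total growth inhibition.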

Experiments:
Assay in all cases: NCI-60 cell line screen, 48 h
A498 renal = tested on: A498 renal
CAKI-1 renal = tested on: CAKI-1 renal
DLD-1 colon = tested on: DLD-1 colon
KM20L2 colon = tested on: KM20L2 colon
MDA-MB-435 = tested on: MDA-MB-435
NCI-H522 lung = tested on: NCI-H522 lung
RXF 393 renal = tested on: RXF 393 renal
SK-OV-3 ovarian = tested on: SK-OV-3 ovarian
SNB-78 CNS = tested on: SNB-78 CNS
UO-31 renal = tested on: UO-31 renal
K-562 leukemia = tested on: K-562 leukemia
M19-MEL melanoma = tested on: M19-MEL melanoma

Compound	TGI (A498 renal)	TGI (CAKI-1 renal)	TGI (DLD-1 colon)	TGI (KM20L2 colon)	TGI (MDA-MB-435)	TGI (NCI-H522 lung)	TGI (RXF 393 renal)	TGI (SK-OV-3 ovarian)	TGI (SNB-78 CNS)	TGI (UO-31 renal)	TGI (K-562 leukemia)	TGI (M19-MEL melanoma)	GI50 (A498 renal)	GI50 (CAKI-1 renal)	GI50 (K-562 leukemia)	GI50 (MDA-MB-435)	GI50 (NCI-H522 lung)	GI50 (RXF 393 renal)	GI50 (SK-OV-3 ovarian)	GI50 (UO-31 renal)
COc1ncnc2c(NC3OC(CO)C(O)C3O)ncnc12 (stereo not drawn)	1.58 µM	6.3 µM	33.7 µM	> 100 µM	> 100 µM	> 100 µM	12.7 µM	> 27.1 µM	71.9 µM	> 21.9 µM										
CCCCCCCCCCCCCCCC(=O)NC1CCc2cc(O)c(O)c(O)c2-c2ccc(SC)c(=O)cc21 (stereo not drawn)	39.5 µM	27.2 µM	22.4 µM	32.7 µM		14.6 µM	7.66 µM	29.5 µM	28.2 µM	22.6 µM	> 40.7 µM									
CCN=C1NN=C(c2ccccc2)c2cc(Cl)ccc2N1	90 µM	36.9 µM				30.2 µM	58 µM	68.7 µM	72 µM	70.2 µM	> 100 µM	39.5 µM								
COc1cc2c(cc1OC)-c1c(cnn1C1OC(COC(C)=O)C(OC(C)=O)C(OC(C)=O)C1OC(C)=O)CC2 (stereo not drawn)	> 100 µM	> 100 µM	> 100 µM	> 100 µM		37.3 µM		> 100 µM	> 100 µM	> 100 µM	> 100 µM	> 100 µM								
C/C(=N\NC(N)=S)c1ccc2c(c1)OCO2	> 100 µM	> 100 µM	> 100 µM	> 100 µM		> 100 µM	> 100 µM	> 100 µM	> 100 µM	> 100 µM	> 100 µM	> 100 µM								
O=C1C(NCCO)=C(N2CC2)C(=O)C(NCCO)=C1N1CC1	> 100 µM	> 100 µM	> 68.8 µM	> 100 µM	> 100 µM	70.6 µM	> 100 µM	> 88 µM	> 100 µM	> 88 µM	84.7 µM	> 59.8 µM								
CCOC(=O)/C(C#N)=C(O)/C(=C/c1ccccc1Cl)NC(=O)c1ccccc1	> 100 µM	> 100 µM	> 100 µM	> 100 µM		> 100 µM		> 100 µM	> 100 µM	> 100 µM	> 100 µM	> 100 µM								
O=C1CCC(c2nc3ccccc3o2)C(=O)N1 (stereo not drawn)	> 100 µM	> 100 µM	> 100 µM	> 100 µM		> 100 µM	> 100 µM	> 100 µM	> 100 µM	> 100 µM	> 100 µM	> 100 µM								
O=C(Nc1ccc(C(F)(F)F)cc1[N+](=O)[O-])C(=O)C(C(=O)c1ccc2ccccc2c1)C1OC(=O)c2ccccc21 (stereo not drawn)	19.7 µM	41.7 µM	26.7 µM	38.7 µM		16.4 µM	10.1 µM	> 100 µM	35.4 µM	28.8 µM	47.8 µM	42.7 µM								
O=C(CC(=O)Nc1ccc(Cl)cc1)NNCC(=O)Nc1nc(-c2ccccc2)cs1			> 100 µM	> 100 µM		> 100 µM	> 100 µM	> 100 µM	> 100 µM		> 100 µM	> 100 µM								
O=[N+]([O-])c1ccc(Cc2nc3ccccc3s2)cc1	> 100 µM	> 100 µM	> 100 µM	> 100 µM		> 100 µM	> 100 µM	> 100 µM	> 100 µM	> 100 µM	> 100 µM	> 100 µM								
Cc1ccc(NC(=O)c2ccnc(C(F)(F)F)c2)cc1-c1cc(OCCO)nc(N2CCOCC2)c1	3.74 µM	38.7 µM			1.81 µM	17.2 µM	10.4 µM	> 100 µM		13.1 µM	41.6 µM		1.06 µM	1.62 µM	1.86 µM	0.391 µM	1.55 µM	1.94 µM	6.39 µM	0.495 µM
Cc1cccc(C(C)(C)C)c1NC(=O)CC1C(=O)Nc2ccccc2S1=O (stereo not drawn)		> 100 µM	> 100 µM	> 100 µM		> 100 µM			> 100 µM	> 100 µM	> 100 µM									
Clc1nc(Cl)c2ncn(C/C=C\Cn3cnc4c(Cl)nc(Cl)nc43)c2n1	3.23 µM	2.41 µM			3.77 µM	4.02 µM	4.35 µM	20.3 µM		10.3 µM	> 100 µM		1.51 µM	1.16 µM	3.1 µM	1.88 µM	1.76 µM	2.18 µM	7.03 µM	3.38 µM
N#CCCc1nc2ccc(Br)cc2c(=O)n1-c1ccc(O)c([N+](=O)[O-])c1	> 100 µM	92.6 µM	34.7 µM	> 100 µM		31.8 µM	32.4 µM	85.2 µM	76.7 µM	78.9 µM	61.9 µM	42.3 µM								
